Here are results for ten compounds from ChEMBL document CHEMBL2034887, “Substituted phenoxypropyl-(R)-2-methylpyrrolidine aminomethyl ketones as histamine-3 receptor inverse agonists” (Bioorg Med Chem Lett, 2012).

Activity calls are given as the source filed them. The rule behind the calls is not given here.

Data set [1] addresses T1, Histamine H3 receptor (Homo sapiens, UniProt Q9Y5N1). In words: Displacement of [3H]NAMH from human histamine H3 receptor expressed in CHO cells. It is filed as cell-based. In general terms: Loss of bound radioactivity is the signal in a displacement assay; it reports binding, not function.
Data set [2] can be described thus: Ratio of drug level in brain to plasma in rat at 5 mg/kg, po measured after 6 hrs. Also on record: dose 5 mg/kg, route oral. Particulars: read-out: BPR. It is filed as ADME, organism-based.
The test system of data set [3] is Rattus norvegicus. In words: Wake promoting activity in EEG/EMG Sprague-Dawley rat model at 10 to 30 mg/kg, ip measured after 9 hrs. It is filed as functional, organism-based.
Data set [4] addresses Cytochrome P450 3A4 (Homo sapiens, UniProt P08684). Briefly: Inhibition of CYP3A4. The data set is classed as ADME.
A short description of data set [5]: Half life in mouse liver microsomes. It is filed as ADME, Microsome.
Data set [6] has as its system Rattus norvegicus. Briefly: Inhibition of RAMH-induced dipsogenia in ip dosed rat. It is filed as functional.
Data set [7] in a line: Volume of distribution in rat at […], iv. It is filed as ADME, organism-based. Particulars: in vivo.
Data set [8] addresses T2, Cytochrome P450 1A2 (Homo sapiens, UniProt P05177).
T2 sequence (P05177 whole entry): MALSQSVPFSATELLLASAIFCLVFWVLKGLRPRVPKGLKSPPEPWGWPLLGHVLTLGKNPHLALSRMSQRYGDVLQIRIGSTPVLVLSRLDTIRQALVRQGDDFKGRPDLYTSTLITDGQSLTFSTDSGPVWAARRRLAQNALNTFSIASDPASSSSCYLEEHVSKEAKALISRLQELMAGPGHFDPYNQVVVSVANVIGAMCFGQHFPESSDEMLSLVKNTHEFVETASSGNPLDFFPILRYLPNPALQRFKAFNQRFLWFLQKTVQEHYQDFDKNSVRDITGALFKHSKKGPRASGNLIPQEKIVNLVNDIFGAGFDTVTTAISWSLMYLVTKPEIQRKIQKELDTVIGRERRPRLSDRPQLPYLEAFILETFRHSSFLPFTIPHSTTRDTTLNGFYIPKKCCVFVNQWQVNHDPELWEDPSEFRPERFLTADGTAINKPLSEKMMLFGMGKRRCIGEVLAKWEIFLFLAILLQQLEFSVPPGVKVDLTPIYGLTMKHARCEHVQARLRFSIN
Briefly: Inhibition of CYP1A2. It is filed as ADME.

Data set [9] has as its target Histamine H3 receptor (Rattus norvegicus, UniProt Q9QYN8). Briefly: Displacement of [3H]NAMH from rat histamine H3 receptor expressed in CHO cells. The data set is classed as cell-based.
The nature of data set [10]: Half life in monkey liver microsomes. It is filed as ADME, Macaca mulatta, Microsome. The following applies: rhesus monkey. In general terms: Liver microsomes are a subcellular fraction often used to study metabolism.
The nature of data set [11]: Clearance in rat at […], iv. It is filed as ADME, organism-based. The following applies: in vivo.
The nature of data set [12]: Half life in human liver microsomes. The data set is classed as ADME, Microsome.
Data set [13] in a line: Half life in rat liver microsomes. It is filed as ADME, Microsome.
For data set [14], the target named is Cytochrome P450 2C9 (Homo sapiens, UniProt P11712). Briefly: Inhibition of CYP2C9. The data set is classed as ADME.
In data set [15] the target is Cytochrome P450 2C19 (Homo sapiens, UniProt P33261). In words: Inhibition of CYP2C19. The data set is classed as ADME.
Data set [16] in a line: Half life in dog liver microsomes. It is filed as ADME, Canis lupus familiaris, Microsome.
Data set [17] deals with Cytochrome P450 2D6 (Homo sapiens, UniProt P10635). Briefly: Inhibition of CYP2D6. It is filed as ADME.
A short description of data set [18]: AUC in rat at 5 mg/kg, po. It is filed as ADME, organism-based. More on the design: dose 5 mg/kg, route oral. Particulars: plasma.
Data set [19] in a line: Half life in rat at […], iv. The data set is classed as ADME, organism-based. Particulars: in vivo.
A short description of data set [20]: Oral bioavailability in rat at 5 mg/kg. The data set is classed as ADME, organism-based. The following applies: in vivo.
The nature of data set [21]: Cmax in rat at 5 mg/kg, po. The data set is classed as ADME, organism-based. Also on record: dose 5 mg/kg, route oral. Particulars: in vivo.
In data set [22] the target is T1, Histamine H3 receptor. In words: Inverse agonist activity at human histamine H3 receptor by [35S]-GTPgammaS binding assay. The data set is classed as functional. In general terms: GTPγS is a poorly hydrolysed GTP analogue; its binding reports G protein activation.
In data set [23] the target is T1, Histamine H3 receptor. In words: Antagonist activity at human histamine H3 receptor assessed as inhibition of [35S]-GTPgammaS binding. It is filed as functional.
The test system of data set [24] is Rattus norvegicus. Briefly: Wake promoting activity in EEG/EMG Sprague-Dawley rat model at 30 mg/kg, ip measured after 4 hrs relative to vehicle-treated control. The data set is classed as functional. Particulars: route intraperitoneal.

Chain of Cytochrome P450 2D6 (P10635 whole entry): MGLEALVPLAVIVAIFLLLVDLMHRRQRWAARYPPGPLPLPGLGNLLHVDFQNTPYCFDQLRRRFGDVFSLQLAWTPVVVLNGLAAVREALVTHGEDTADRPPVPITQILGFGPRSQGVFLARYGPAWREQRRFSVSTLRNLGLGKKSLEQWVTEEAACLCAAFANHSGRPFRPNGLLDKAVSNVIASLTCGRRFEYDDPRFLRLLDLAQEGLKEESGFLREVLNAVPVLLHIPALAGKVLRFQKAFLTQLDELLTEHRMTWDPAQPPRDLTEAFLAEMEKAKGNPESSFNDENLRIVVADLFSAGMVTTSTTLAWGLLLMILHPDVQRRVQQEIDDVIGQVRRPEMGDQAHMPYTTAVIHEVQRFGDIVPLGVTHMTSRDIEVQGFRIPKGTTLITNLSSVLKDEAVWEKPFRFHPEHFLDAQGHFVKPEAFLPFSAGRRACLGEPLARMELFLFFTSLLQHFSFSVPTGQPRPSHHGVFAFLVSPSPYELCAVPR
T1 sequence (Q9Y5N1 whole entry): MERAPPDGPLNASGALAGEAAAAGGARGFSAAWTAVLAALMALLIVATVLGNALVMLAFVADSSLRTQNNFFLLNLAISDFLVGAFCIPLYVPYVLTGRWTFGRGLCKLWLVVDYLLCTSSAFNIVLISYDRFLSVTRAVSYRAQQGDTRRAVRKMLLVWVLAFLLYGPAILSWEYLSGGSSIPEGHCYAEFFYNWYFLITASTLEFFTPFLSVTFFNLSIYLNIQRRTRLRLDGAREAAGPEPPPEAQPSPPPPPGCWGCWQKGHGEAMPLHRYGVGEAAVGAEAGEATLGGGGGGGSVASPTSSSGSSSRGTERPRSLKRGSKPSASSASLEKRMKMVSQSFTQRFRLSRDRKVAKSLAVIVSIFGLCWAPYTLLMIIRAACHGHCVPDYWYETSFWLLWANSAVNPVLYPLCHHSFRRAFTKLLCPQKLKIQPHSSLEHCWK
Chain of Histamine H3 receptor (Rattus norvegicus, UniProt Q9QYN8) (Q9QYN8 whole entry): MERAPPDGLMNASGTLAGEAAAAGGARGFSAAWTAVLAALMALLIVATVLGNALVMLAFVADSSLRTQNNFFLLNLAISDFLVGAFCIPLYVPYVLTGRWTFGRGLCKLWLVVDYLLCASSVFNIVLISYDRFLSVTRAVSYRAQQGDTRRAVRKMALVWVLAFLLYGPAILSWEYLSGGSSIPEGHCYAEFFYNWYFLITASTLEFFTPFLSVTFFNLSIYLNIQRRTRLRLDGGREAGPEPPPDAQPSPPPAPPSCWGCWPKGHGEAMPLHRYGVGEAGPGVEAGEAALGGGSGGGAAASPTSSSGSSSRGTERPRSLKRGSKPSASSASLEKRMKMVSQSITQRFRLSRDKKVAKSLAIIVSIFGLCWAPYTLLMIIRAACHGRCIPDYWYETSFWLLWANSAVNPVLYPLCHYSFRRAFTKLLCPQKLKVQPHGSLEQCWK
Chain of Cytochrome P450 3A4 (P08684 whole entry): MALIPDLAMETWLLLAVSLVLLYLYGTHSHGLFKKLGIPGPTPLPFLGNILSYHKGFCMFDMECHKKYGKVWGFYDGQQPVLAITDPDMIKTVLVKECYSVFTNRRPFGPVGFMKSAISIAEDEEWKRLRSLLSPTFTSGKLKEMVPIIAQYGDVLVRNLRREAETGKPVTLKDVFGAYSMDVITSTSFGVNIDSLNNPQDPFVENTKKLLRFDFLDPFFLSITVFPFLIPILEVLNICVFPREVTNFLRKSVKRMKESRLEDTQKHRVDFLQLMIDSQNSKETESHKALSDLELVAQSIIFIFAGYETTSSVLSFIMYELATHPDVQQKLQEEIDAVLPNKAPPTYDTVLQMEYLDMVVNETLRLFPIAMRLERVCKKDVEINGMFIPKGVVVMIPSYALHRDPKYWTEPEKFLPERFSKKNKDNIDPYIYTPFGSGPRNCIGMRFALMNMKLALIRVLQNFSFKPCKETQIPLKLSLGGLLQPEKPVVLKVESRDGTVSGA
Chain of Cytochrome P450 2C9 (P11712 whole entry): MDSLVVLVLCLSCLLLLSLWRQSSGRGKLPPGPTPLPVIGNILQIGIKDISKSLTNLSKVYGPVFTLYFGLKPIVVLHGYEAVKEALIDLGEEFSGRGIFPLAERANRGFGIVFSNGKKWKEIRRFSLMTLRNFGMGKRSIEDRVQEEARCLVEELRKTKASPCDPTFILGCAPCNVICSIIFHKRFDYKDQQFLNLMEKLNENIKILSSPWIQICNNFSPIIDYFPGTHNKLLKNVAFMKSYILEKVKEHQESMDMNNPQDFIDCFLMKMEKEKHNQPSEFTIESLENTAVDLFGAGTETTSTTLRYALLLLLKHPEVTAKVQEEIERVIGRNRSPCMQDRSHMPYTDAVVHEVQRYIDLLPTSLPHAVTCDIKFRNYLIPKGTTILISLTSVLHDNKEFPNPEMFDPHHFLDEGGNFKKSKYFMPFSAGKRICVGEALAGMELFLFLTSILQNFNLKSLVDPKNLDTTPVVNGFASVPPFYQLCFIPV
Chain of Cytochrome P450 2C19 (P33261 whole entry): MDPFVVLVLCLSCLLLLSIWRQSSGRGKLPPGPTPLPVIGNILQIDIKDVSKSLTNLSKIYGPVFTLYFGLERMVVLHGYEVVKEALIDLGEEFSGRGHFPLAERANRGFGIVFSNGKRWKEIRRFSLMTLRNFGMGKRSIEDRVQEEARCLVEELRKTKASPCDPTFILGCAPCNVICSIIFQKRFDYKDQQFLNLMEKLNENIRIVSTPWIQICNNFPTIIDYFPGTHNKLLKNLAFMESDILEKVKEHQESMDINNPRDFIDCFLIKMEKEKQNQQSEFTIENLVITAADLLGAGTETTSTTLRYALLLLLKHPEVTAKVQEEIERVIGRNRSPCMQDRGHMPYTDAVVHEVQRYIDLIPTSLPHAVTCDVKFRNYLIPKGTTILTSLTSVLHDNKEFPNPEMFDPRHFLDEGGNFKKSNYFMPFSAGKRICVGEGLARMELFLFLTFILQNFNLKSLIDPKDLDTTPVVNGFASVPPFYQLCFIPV

In general, Ki refers to the equilibrium dissociation constant of an inhibitor or competing ligand from its target. A word on the IC50: it is the concentration that gives 50% inhibition. Broadly, the half-life is the time in which the quantity being followed falls by half. By ED50 is commonly meant the midpoint of the dose-response relation. Usually Vd stands for the apparent volume that relates the amount in the body to the concentration in plasma or blood. For orientation: clearance means the volume of plasma or blood freed of the substance per unit of time. Broadly, the AUC is the area under the concentration-time curve, a measure of exposure. A word on the bioavailability: it is the share of a dose that reaches the circulation, judged against a reference dose that is usually intravenous. By Cmax is commonly meant the highest concentration seen after dosing. As usually defined, the EC50 is the midpoint of the concentration-response curve. By Kb is commonly meant the affinity of an antagonist, worked out from how it opposes an agonist. `COC(=O)N1CCN(CC(=O)c2ccc(OCCCN3CCC[C@H]3C)cc2)CC1`: the figures for the Ki in data set [1] and in data set [9] were 3.2 nM and 19 nM, respectively. Besides, the Kp at 6 h in [2] came to 4.3. In data set [3], the result was inactive. The IC50 in data set [4], in data set [8], in data set [14], in data set [15] and in [17] was over 30000 nM in each case. In addition, the half-life in data set [5] was over 40 min; in data set [10], over 40 min; in data set [12], over 40 min; in data set [13] it was over 40 min; in data set [16], over 40 min; in data set [19], 156 min. For the same compound, the ED50 in data set [6] was found to be 0.54 mg/kg. In addition, in data set [6], the inhibition result is “Dose-dependent effect”. The same compound had a Vd in [7] of 5.4 L/kg. For the same compound, the clearance in data set [11] came out at 24 mL/min/kg. Besides, the AUC in data set [18] was found to be 619 ng·h/mL. In [20], this compound yielded a bioavailability of 22%. Also, the highest concentration (Cmax) in data set [21] turned out to be 128 ng/mL. This compound showed a concentration giving a half-maximal response (EC50) in data set [22] of 0.9 nM. The Kb in data set [23] is 0.4 nM.

As for `C[C@@H]1CCCN1CCCOc1ccc(C(=O)CN2CCN(C(=O)c3cc4ccccc4s3)CC2)cc1`, the Ki in data set [1] was 1.2 nM; in [9] it was 4 nM.

For `C[C@@H]1CCCN1CCCOc1ccc(C(=O)CN2CCC(C#N)CC2)cc1`, the Ki in [1] worked out at 6.3 nM; in data set [9], 23 nM.

For the compound `C[C@@H]1CCCN1CCCOc1ccc(C(=O)CN2CCC(F)(F)C2)cc1`, the values for the Ki in data set [1] and in data set [9] were 3.4 nM and 21 nM, respectively.

Consider `C[C@@H]1CCCN1CCCOc1ccc(C(=O)CN2CCN(C(=O)Oc3ccccc3)CC2)cc1`, for which the Ki is 3.9 nM in [1] and 6.9 nM in data set [9].

Regarding `C[C@@H]1CCCN1CCCOc1ccc(C(=O)CN2CCN(C(=O)c3ccc(F)cc3)CC2)cc1`, the Ki in [1] was determined as 0.6 nM; in data set [9] it was 5.8 nM.

For `C[C@@H]1CCCN1CCCOc1ccc(C(=O)CN2CCCC(F)(F)C2)cc1`, the Ki in data set [1] amounted to 9 nM; in [9], 48 nM.

With `CCOC(=O)N1CCN(CC(=O)c2ccc(OCCCN3CCC[C@H]3C)cc2)CC1`, the inhibition constant (Ki) amounted to 4 nM in data set [1] and 23 nM in data set [9]. For the same compound, the Kp at 6 h in data set [2] stood at 2.4. Moreover, in [7], the Vd was 2.8 L/kg. Besides, in data set [11], the clearance came out at 16 mL/min/kg. In [17], the IC50 stood at 5000 nM. Also, in data set [19], the half-life was 126 min. In data set [20], this compound came in with a bioavailability of 33%.

Turning to `C[C@@H]1CCCN1CCCOc1ccc(C(=O)CN2CCN(C(=O)c3ccccc3)CC2)cc1`, the Ki in data set [1] came to 1.9 nM; in [9], 14 nM. For the same compound, the Kp at 6 h in data set [2] stood at 1.5. The IC50 in data set [4], in data set [8], in data set [14], in data set [15] and in data set [17] was over 30000 nM in each case. The half-life is over 40 min in [5]; over 40 min in data set [10]; over 40 min in data set [12]; over 40 min in data set [13]; over 40 min in data set [16]; 72 min in data set [19]. In data set [6], the 50% effect level (ED50) was put at a dose of 0.43 mg/kg. For the same compound, the inhibition entry in data set [6] was “Dose-dependent effect”. In [7], the Vd is 1.4 L/kg. The compound further gave a clearance in data set [11] of 14 mL/min/kg. In addition, the Activity in data set [24] amounted to 33%. Besides, the AUC in data set [18] amounted to 689 ng·h/mL. In data set [20], this compound registered a bioavailability of 14%. Moreover, the Cmax in [21] was determined as 165 ng/mL. Also, the EC50 in [22] is 1 nM. Moreover, the Kb in data set [23] stood at 0.8 nM.

Consider `C[C@@H]1CCCN1CCCOc1ccc(C(=O)CN2CCN(C(=O)c3cccn3C)CC2)cc1`, for which the inhibitory constant (Ki) in data set [1] stood at 0.9 nM; in data set [9] it was 9.4 nM. For the same compound, the Kp at 6 h in [2] is under 0.6.
